Molecules are shown by their SMILES.

The target of the experiment is T1, Q46 protein aggregates (Homo sapiens, UniProt P42858).
T1 construct: fused on or other part: GST at the N-terminus, cut off with thrombin before the test to start aggregation; The wells held aggregated Q46 without GST
T1 sequence (P42858 with tags, fused parts or gaps with the stated changes, form open): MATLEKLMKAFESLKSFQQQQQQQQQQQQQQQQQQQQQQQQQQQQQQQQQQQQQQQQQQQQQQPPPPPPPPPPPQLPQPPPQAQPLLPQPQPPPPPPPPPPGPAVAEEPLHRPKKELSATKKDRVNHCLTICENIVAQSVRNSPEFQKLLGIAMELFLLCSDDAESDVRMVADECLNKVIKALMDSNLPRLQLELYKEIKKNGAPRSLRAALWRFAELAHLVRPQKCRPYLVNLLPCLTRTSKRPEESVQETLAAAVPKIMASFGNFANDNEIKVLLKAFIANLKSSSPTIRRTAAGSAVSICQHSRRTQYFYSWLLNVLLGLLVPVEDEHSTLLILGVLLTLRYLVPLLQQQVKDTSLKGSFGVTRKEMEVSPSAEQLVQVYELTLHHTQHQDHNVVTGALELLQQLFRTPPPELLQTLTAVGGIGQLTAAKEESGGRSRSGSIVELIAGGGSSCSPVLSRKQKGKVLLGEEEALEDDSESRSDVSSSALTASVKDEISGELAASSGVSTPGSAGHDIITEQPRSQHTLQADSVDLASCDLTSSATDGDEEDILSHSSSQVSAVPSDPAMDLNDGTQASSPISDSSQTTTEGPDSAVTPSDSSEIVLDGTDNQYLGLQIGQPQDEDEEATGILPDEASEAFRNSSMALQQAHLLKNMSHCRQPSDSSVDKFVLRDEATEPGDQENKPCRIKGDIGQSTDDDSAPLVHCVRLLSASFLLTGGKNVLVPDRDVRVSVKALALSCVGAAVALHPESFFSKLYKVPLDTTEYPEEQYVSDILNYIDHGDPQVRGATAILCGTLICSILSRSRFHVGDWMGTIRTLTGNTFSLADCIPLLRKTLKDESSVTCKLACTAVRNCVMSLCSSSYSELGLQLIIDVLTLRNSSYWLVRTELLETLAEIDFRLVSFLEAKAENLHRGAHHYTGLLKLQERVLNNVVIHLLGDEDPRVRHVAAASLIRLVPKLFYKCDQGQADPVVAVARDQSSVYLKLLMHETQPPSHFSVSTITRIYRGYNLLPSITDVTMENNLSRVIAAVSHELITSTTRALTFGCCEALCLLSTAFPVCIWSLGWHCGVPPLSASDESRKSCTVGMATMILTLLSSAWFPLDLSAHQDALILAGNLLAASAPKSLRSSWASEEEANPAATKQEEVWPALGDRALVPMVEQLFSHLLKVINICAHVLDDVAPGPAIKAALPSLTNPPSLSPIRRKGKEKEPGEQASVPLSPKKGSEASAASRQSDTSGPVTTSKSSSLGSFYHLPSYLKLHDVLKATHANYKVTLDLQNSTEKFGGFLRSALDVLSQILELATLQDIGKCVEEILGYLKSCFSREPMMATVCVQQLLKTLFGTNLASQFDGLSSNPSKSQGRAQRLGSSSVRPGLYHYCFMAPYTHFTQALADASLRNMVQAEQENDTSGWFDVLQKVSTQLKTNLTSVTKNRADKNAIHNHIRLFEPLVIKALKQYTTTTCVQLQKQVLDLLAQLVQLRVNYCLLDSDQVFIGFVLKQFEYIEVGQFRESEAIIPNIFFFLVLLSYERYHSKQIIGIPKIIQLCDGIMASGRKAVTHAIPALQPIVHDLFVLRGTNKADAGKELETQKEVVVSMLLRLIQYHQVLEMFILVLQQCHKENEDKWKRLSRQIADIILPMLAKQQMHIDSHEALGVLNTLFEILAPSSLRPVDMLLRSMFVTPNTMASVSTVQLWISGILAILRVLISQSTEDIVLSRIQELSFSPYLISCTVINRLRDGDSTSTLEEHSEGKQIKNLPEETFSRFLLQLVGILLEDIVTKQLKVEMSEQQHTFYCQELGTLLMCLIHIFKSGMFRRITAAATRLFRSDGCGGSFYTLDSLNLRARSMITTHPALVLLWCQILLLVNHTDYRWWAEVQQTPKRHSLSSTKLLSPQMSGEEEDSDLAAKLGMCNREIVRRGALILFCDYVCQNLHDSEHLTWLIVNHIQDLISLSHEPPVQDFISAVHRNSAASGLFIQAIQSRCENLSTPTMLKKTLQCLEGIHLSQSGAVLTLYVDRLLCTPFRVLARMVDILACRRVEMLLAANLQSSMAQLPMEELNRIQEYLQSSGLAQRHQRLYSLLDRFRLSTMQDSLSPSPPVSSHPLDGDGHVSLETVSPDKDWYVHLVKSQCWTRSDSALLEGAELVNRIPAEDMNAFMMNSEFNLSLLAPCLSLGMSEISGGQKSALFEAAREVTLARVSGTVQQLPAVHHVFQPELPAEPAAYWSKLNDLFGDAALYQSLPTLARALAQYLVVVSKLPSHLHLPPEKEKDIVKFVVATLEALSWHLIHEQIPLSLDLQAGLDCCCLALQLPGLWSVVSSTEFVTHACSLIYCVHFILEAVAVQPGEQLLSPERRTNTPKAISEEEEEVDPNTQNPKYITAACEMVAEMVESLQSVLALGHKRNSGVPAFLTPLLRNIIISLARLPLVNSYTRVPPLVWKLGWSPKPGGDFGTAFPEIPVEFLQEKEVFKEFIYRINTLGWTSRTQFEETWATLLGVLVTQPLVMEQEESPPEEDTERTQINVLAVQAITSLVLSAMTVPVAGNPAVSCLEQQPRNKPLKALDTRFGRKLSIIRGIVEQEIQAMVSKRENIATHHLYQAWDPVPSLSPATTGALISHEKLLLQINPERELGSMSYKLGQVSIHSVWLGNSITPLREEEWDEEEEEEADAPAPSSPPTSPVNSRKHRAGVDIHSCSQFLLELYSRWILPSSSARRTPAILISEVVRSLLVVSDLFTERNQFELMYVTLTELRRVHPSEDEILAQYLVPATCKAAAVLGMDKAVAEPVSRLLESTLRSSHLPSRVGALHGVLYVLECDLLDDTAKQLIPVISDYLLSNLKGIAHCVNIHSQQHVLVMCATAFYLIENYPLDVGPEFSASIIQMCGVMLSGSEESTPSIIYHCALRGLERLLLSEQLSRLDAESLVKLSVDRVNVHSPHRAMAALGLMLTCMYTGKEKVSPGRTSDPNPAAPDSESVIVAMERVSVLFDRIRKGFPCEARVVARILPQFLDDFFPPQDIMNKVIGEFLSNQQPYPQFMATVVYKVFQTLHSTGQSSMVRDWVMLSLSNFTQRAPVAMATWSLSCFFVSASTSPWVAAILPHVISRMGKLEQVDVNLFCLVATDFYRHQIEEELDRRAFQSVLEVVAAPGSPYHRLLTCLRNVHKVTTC
Kind of experiment: Q46 radioligand binding assay (RBA). The following applies: 10 nM ligand [3H3]MK-3328. A digest of the protocol:
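Aggregates from thrombin-cleaved GST-Q46 (16 h, 37° C) at 5 μM monomer-equivalent were pre-incubated 20 min at room temperature with compound (1 μM to 30 pM) in 150 mM NaCl, 50 mM Tris pH 8.0, then 60 min at 37° C with 10 nM [^3H3]MK-3328. Bound radioactivity was filtered and counted; IC50 came from a four-parameter global fit normalized to vehicle and 3 μM unlabelled MK-3328.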
As a reminder, the IC50 is the point on the concentration scale where inhibition reaches its midpoint. A lower IC50 goes with greater potency. For the molecule `COc1ccc(COc2ccc3oc(-c4ccncc4)nc3c2)nc1` [5-[(5-methoxypyridin-2-yl)methoxy]-2-(pyridin-4-yl)-1,3-benzoxazole], the IC50 was under 0.1 µM.

`COc1ccc(COc2ccc3oc(-c4ccncn4)nc3c2)nc1` [5-[(5-methoxypyridin-2-yl)methoxy]-2-(pyrimidin-4-yl)-1,3-benzoxazole]: the IC50 is under 0.1 µM.

Consider `COc1ccc(COc2ccc3oc(-c4ccc(-c5ncccn5)cc4)nc3c2)nc1` [5-[(5-methoxypyridin-2-yl)methoxy]-2-[4-(pyrimidin-2-yl)phenyl]-1,3-benzoxazole], for which the IC50 is under 0.1 µM.

On to `COc1ccc(COc2ccc3oc(-c4ccc(C(F)(F)F)nc4)nc3c2)nc1` [5-[(5-methoxypyridin-2-yl)methoxy]-2-[6-(trifluoromethyl)pyridin-3-yl]-1,3-benzoxazole], for which the IC50 was under 0.1 µM.

Regarding `COc1ccc(COc2ccc3oc(N4Cc5cccnc5C4)nc3c2)nc1` [5-[(5-methoxypyridin-2-yl)methoxy]-2-{5H,6H,7H-pyrrolo[3,4-b]pyridin-6-yl}-1,3-benzoxazole], the IC50 was under 0.1 µM.

The molecule `COc1ccc(COc2cnc3oc(-c4cccnc4)nc3c2)[n+]([O-])c1` [5-methoxy-2-({[2-(pyridin-3-yl)-[1,3]oxazolo[5,4-b]pyridin-6-yl]oxy}methyl)pyridin-1-ium-1-olate] had an IC50 of under 0.1 µM.

`COc1cnc(COc2cnc3oc(-c4cccnc4)nc3c2)nc1` [5-methoxy-2-({[2-(pyridin-3-yl)-[1,3]oxazolo[5,4-b]pyridin-6-yl]oxy}methyl)pyrimidine] displayed an IC50 of under 0.1 µM.

In the case of `COc1ccc2c(c1)CN(c1ccc3oc(-c4cccnc4)nc3c1)C2=O` [5-methoxy-2-[2-(pyridin-3-yl)-1,3-benzoxazol-5-yl]-2,3-dihydro-1H-isoindol-1-one], the IC50 was under 0.1 µM.

As for `COc1ccc2c(c1)CN(c1cnc3oc(-c4cccnc4)nc3c1)C2=O` [5-methoxy-2-[2-(pyridin-3-yl)-[1,3]oxazolo[5,4-b]pyridin-6-yl]-2,3-dihydro-1H-isoindol-1-one], the IC50 was under 0.1 µM.

In turn, `COc1ccc(C(=O)Nc2ccc3oc(-c4ccc(=O)n(C)n4)nc3c2)nc1` [5-methoxy-N-[2-(1-methyl-6-oxo-1,6-dihydropyridazin-3-yl)-1,3-benzoxazol-5-yl]pyridine-2-carboxamide] returned an IC50 of under 0.1 µM.

`COc1cncc(C(=O)Nc2ccc3oc(-c4ccc(=O)n(C)n4)nc3c2)c1` [5-methoxy-N-[2-(1-methyl-6-oxo-1,6-dihydropyridazin-3-yl)-1,3-benzoxazol-5-yl]pyridine-3-carboxamide] registered an IC50 of under 0.1 µM.

Molecule `COc1cnc(C(=O)Nc2ccc3oc(-c4cccc(C)c4)nc3c2)cn1` [5-methoxy-N-[2-(3-methylphenyl)-1,3-benzoxazol-5-yl]pyrazine-2-carboxamide] displayed an IC50 of under 0.1 µM.

Molecule `COc1ccc(C(=O)Nc2ccc3oc(-c4cccc(C)c4)nc3c2)nc1` [5-methoxy-N-[2-(3-methylphenyl)-1,3-benzoxazol-5-yl]pyridine-2-carboxamide] gave an IC50 of under 0.1 µM.

`COc1ccc(C(=O)Nc2ccc3oc(-c4cccnc4)nc3c2)nc1` [5-methoxy-N-[2-(pyridin-3-yl)-1,3-benzoxazol-5-yl]pyridine-2-carboxamide] gave an IC50 of under 0.1 µM.

For `COc1cncc(C(=O)Nc2ccc3oc(-c4cccnc4)nc3c2)c1` [5-methoxy-N-[2-(pyridin-3-yl)-1,3-benzoxazol-5-yl]pyridine-3-carboxamide], the IC50 is under 0.1 µM.

In turn, `COc1ccc(NCc2ccc3oc(-c4cccnc4)nc3c2)nc1` [5-methoxy-N-{[2-(pyridin-3-yl)-1,3-benzoxazol-5-yl]methyl}pyridin-2-amine] displayed an IC50 of 0.1 to 0.5 µM.

Molecule `Cc1cncc(C(=O)Nc2ccc3oc(-c4cccnc4)nc3c2)c1` [5-methyl-N-[2-(pyridin-3-yl)-1,3-benzoxazol-5-yl]pyridine-3-carboxatmide] gave an IC50 of under 0.1 µM.

As for `CNC(=O)c1ccc(-c2nc3cc(OCc4ccc(O)cn4)ccc3o2)cn1` [5-{5-[(5-hydroxypyridin-2-yl)methoxy]-1,3-benzoxazol-2-yl}-N-methylpyridine-2-carboxamide], the IC50 was under 0.1 µM.

Molecule `COc1ccc(COc2ccc3oc(-c4ccc(=O)[nH]c4)nc3c2)nc1` [5-{5-[(5-methoxypyridin-2-yl)methoxy]-1,3-benzoxazol-2-yl}-1,2-dihydropyridin-2-one] displayed an IC50 of under 0.1 µM.

For the molecule `COc1ccc(COc2ccc3oc(-c4cn(C)c(=O)cn4)nc3c2)nc1` [5-{5-[(5-methoxypyridin-2-yl)methoxy]-1,3-benzoxazol-2-yl}-1-methyl-1,2-dihydropyrazin-2-one], the IC50 is under 0.1 µM.

The molecule `COc1ccc(COc2ccc3oc(-c4ccc(=O)n(C)c4)nc3c2)nc1` [5-{5-[(5-methoxypyridin-2-yl)methoxy]-1,3-benzoxazol-2-yl}-1-methyl-1,2-dihydropyridin-2-one] showed an IC50 of under 0.1 µM.

`CNC(=O)c1ccc(-c2nc3cc(OCc4ccc(OC)cn4)ccc3o2)c[n+]1[O-]` [5-{5-[(5-methoxypyridin-2-yl)methoxy]-1,3-benzoxazol-2-yl}-2-(methylcarbamoyl)pyridin-1-ium-1-olate] displayed an IC50 of under 0.1 µM.

`CNc1ccc(-c2nc3cc(OCc4ccc(OC)cn4)ccc3o2)cn1` [5-{5-[(5-methoxypyridin-2-yl)methoxy]-1,3-benzoxazol-2-yl}-N-methylpyridin-2-amine] came in with an IC50 of under 0.1 µM.

The molecule `CNC(=O)c1ccc(-c2nc3cc(OCc4ccc(OC)cn4)ccc3o2)cn1` [5-{5-[(5-methoxypyridin-2-yl)methoxy]-1,3-benzoxazol-2-yl}-N-methylpyridine-2-carboxamide] came in with an IC50 of under 0.1 µM.

The molecule `COc1ccc(COc2ccc3oc(-c4ccc(N)nc4)nc3c2)nc1` [5-{5-[(5-methoxypyridin-2-yl)methoxy]-1,3-benzoxazol-2-yl}pyridin-2-amine] returned a half-inhibitory concentration (IC50) of under 0.1 µM.

The molecule `C1=C(COc2ccc3oc(-c4cccnc4)nc3c2)N2CCN=C2S1` [5-{5H,6H-imidazo[2,1-b][1,3]thiazol-3-ylmethoxy}-2-(pyridin-3-yl)-1,3-benzoxazole] displayed a half-maximal inhibitory concentration (IC50) of 0.1 to 0.5 µM.

Turning to `CNC(=O)c1ccc(-c2nc3cc(OCc4ccc(OC)cn4)cnc3o2)cn1` [5-{6-[(5-methoxypyridin-2-yl)methoxy]-[1,3]oxazolo[5,4-b]pyridin-2-yl}-N-methylpyridine-2-carboxamide], the IC50 was under 0.1 µM.

The molecule `COc1ccc(OCc2ccc3oc(-c4cccnc4)nc3c2)nc1` [5-{[(5-methoxypyridin-2-yl)oxy]methyl}-2-(pyridin-3-yl)-1,3-benzoxazole] showed an IC50 of under 0.1 µM.

As to `Cn1nc(-c2nc3cc(OCc4ccc(OCCF)cn4)cnc3o2)ccc1=O` [6-(6-{[5-(2-fluoroethoxy)pyridin-2-yl]methoxy}-[1,3]oxazolo[5,4-b]pyridin-2-yl)-2-methyl-2,3-dihydropyridazin-3-one], the IC50 was under 0.1 µM.

As for `Cn1cc(-c2nc3cc(OCc4ccc(N)cn4)cnc3o2)cn1` [6-({[2-(1-methyl-1H-pyrazol 4-yl)-[1,3]oxazolo[5,4-b]pyridin-6-yl]oxy}methyl)pyridin-3-amine], the IC50 is 0.1 to 0.5 µM.

Molecule `Cn1cc(-c2nc3cc(OCc4ccc(O)cn4)ccc3o2)cn1` [6-({[2-(1-methyl-1H-pyrazol-4-yl)-1,3-benzoxazol-5-yl]oxy}methyl)pyridin-3-ol] came in with an IC50 of 0.1 to 0.5 µM.

With `Oc1ccc(COc2ccc3oc(-c4cccnc4)nc3c2)nc1` [6-({[2-(pyridin-3-yl)-1,3-benzoxazol-5-yl]oxy}methyl)pyridin-3-ol], the IC50 is under 0.1 µM.

The molecule `COc1ccc2c(c1)CCN(c1ccc3oc(-c4cccnc4)nc3c1)C2=O` [6-methoxy-2-[2-(pyridin-3-yl)-1,3-benzoxazol-5-yl]-1,2,3,4-tetrahydroisoquinolin-1-one] gave a half-inhibitory concentration (IC50) of 0.1 to 0.5 µM.

`COc1ccc2c(=O)n(-c3ccc4oc(-c5cccnc5)nc4c3)ccc2c1` [6-methoxy-2-[2-(pyridin-3-yl)-1,3-benzoxazol-5-yl]-1,2-dihydroisoquinolin-1-one] yielded an IC50 of 0.1 to 0.5 µM.

`COc1ccc(C(=O)Nc2ccc3oc(-c4cccc(C)c4)nc3c2)cn1` [6-methoxy-N-[2-(3-methylphenyl)-1,3-benzoxazol-5-yl]pyridine-3-carboxamide] had an IC50 of under 0.1 µM.

`COc1cccc(C(=O)Nc2ccc3oc(-c4cccnc4)nc3c2)n1` [6-methoxy-N-[2-(pyridin-3-yl)-1,3-benzoxazol-5-yl]pyridine-2-carboxamide] displayed an IC50 of under 0.1 µM.

`O=C(Nc1ccc2oc(-c3cccnc3)nc2c1)c1ccc(Oc2ccccc2)nc1` [6-phenoxy-N-[2-(pyridin-3-yl)-1,3-benzoxazol-5-yl]pyridine-3-carboxamide] registered an IC50 of under 0.1 µM.

Turning to `Cn1nc(-c2nc3cc(OCc4ccc(O)cn4)ccc3o2)ccc1=O` [6-{5-[(5-hydroxypyridin-2-yl)methoxy]-1,3-benzoxazol-2-yl}-2-methyl-2,3-dihydropyridazin-3-one], the IC50 was under 0.1 µM.

Regarding `COc1ccc(COc2ccc3oc(-c4ccc(=O)n(C)n4)nc3c2)nc1` [6-{5-[(5-methoxypyridin-2-yl)methoxy]-1,3-benzoxazol-2-yl}-2-methyl-2,3-dihydropyridazin-3-one], the half-maximal inhibitory concentration (IC50) was under 0.1 µM.

In turn, `COc1ccc(COc2cnc3oc(-c4ccc(=O)n(C)n4)nc3c2)nc1` [6-{6-[(5-methoxypyridin-2-yl)methoxy]-[1,3]oxazolo[5,4-b]pyridin-2-yl}-2-methyl-2,3-dihydropyridazin-3-one] gave an IC50 of under 0.1 µM.

For the molecule `COc1ccc(COc2ccc3oc(N4CCc5cccnc5C4)nc3c2)nc1` [7-{5-[(5-methoxypyridin-2-yl)methoxy]-1,3-benzoxazol-2-yl}-5,6,7,8-tetrahydro-1,7-naphthyridine], the 50% inhibitory concentration (IC50) is under 0.1 µM.

On to `COc1ccc(/C=C/C(=O)Nc2ccc3oc(-c4cccnc4)nc3c2)cc1` [(2E)-3-(4-methoxyphenyl)-N-[2-(pyridin-3-yl)-1,3-benzoxazol-5-yl]prop-2-enamide], for which the IC50 is under 0.1 µM.

For the origin of these results see patent US12258355B2, “Probes for imaging huntingtin protein” (CHDI Foundation, Inc., priority 2014, dated 2025).
